# Earlier results in patent publication US4139504A, “Novel nonapeptides, intermediates therefor, and compositions and methods employing said nonapeptides” (priority 1977, dated 1979).
# Assays:
# [1] = tested on: brain opiate receptor sites
# [2] = tested on: rat; details: injected directly into the brain of the rat
substance,measurement,setting,value
H--Tyr--Gly--Gly--Phe--Met--OH [methionine enkephalin],binding to partially purified brain opiate receptor sites,[1],binds stereo-specifically
same,analgesic activity,[2],only weak analgesic agent of short duration
